Laboratory results taken from patent US10995054B2, “Hyperpolarized [3-13C]acetoacetate and methods of using the same” (Agency for Science, Technology and Research, priority 2016, dated 2021).
Where “and” joins values, the source holds several entries; their conditions need not be identical. Equal values may be shown once. Read-outs that look alike come from different tables or passages of the source.

Tests used:
[1] = Hyperpolarization (DNP) and lifetime of [3-13C]acetoacetate; type: physicochemical
Method: Approximately 51 mg of [3-^13C]acetoacetate, doped with 5.5 mg of trityl-radical (OX063, GE Healthcare), 250 μl of gadoterate meglumine (1.2 mmol/L, Dotarem®, Guerbet) and […] of DMSO (25% v/v) was prepared. Total volume is approximately […], resulting in 1.23 mol/L of [3-^13C]acetoacetate, 9.3 mmol/L of OX063, and 0.80 mmol/L of gadolinium. […] of the sample was hyperpolarized in a polarizer (Hypersense, Oxford Instruments, Oxford, UK), with 120 min of microwave irradiation at 94.097 GHz. The polarized sample was subsequently dissolved in 3 mL of pressurized and heated Tris-EDTA buffer with pH 7.80, to yield a solution of 80 mmol/L hyperpolarized [3-^13C]acetoacetate with a polarization of 10% and physiological temperature and pH.
The Examiner first determined whether the synthesized [3-^13C]acetoacetate can be hyperpolarized with sufficient polarization and lifetime for in vivo application. After 120 minutes of microwave irradiation at 1.2 K, the achieved polarization was 10.3±1.2% and T1 was 28.2±3.1 s. Besides the main substrate peak at 209.9 ppm and the natural abundance [1-^13C]acetoacetate at 174.6 ppm, an impurity peak was detected at 181.0 ppm. The amplitude of the impurity peak is 0.19±0.01% of the [3-^13C]acetoacetate signal. The impurity peak is very close to the expected [5-^13C]glutamate peak at 181.2 ppm (FIG. 2B). […]

[2] = system: myocardial ketone body utilization; assay: Ketone body utilization in the heart in vivo measured by hyperpolarized 13C-MRS; design: species or system rat
Description: Male non-obese diabetic Goto-Kakizaki (GK/MolTac; n=10) rats bred by Taconic (New York, US) were ordered from InVivos (Singapore). Male wild-type Wistar Han rats (n=10) were purchased from InVivos (Singapore) and served as controls. At 24 weeks of age, the animals underwent ^13C MRS and MRI to determine myocardial ketone body utilization and cardiac function. The animals were anaesthetized with isoflurane (3% for induction; 1.5-2% for maintenance) in medical air and oxygen at a flow rate of 2.0 L/min and 0.5 L/min, respectively. A catheter was inserted into the tail vein for intravenous administration of the hyperpolarized [3-^13C] acetoacetate inside the MRI scanner. At the end of the study, the animals were sacrificed. Blood and organs were collected and stored at −80° C. for biochemical analysis. All procedures involving animals were approved by A*STAR Institutional Animal Care and Use Committee (#171204)
Rats were positioned supine in a 9.4 T horizontal bore MR scanner interfaced to a Avance III HD console (Biospec, Bruker, Germany), with the heart directly above a dual-tuned (^1H/^13C) rat surface coil (diameter: 30 mm). Correct positioning was confirmed by the acquisition of an axial proton FLASH image (TE/TR, 8.0/100.0 ms; matrix size, 128×128; FOY, 40×40 mm; slice thickness, 1.5 mm; excitation flip angle, 30°). A cardiac-triggered and respiratory-gated shim was used to reduce the proton linewidth to approximately 160 Hz. Immediately before injection, a respiratory-gated ^13C MR pulse-acquire spectroscopy sequence was initiated. Then, hyperpolarized [3-^13C]acetoacetate (0.75-1.05 mL; 0.240 mmol/kg body weight) was injected via tail vein at a rate of 6 mL/min. Sixty individual heart spectra were acquired over 2 minutes after injection (TR, 2 s; excitation flip angle, 25°; sweep width, 8,000 Hz; acquired points, 4,096; frequency centered at 190 ppm from tetramethylsilane (TMS) standard).
Cardiac ^13C MR spectra were analyzed using the AMARES algorithm as implemented in the jMRUI software package (Naressi A, et al. Magn Reson Mater Physics, Biol Med. 2001; 12:141). Spectra were baseline and DC offset-corrected based on the last half of acquired points. To quantify myocardial ketone metabolism, spectra were summed over the first 30 seconds upon acetoacetate arrival. Peaks corresponding to [3-^13C]acetoacetate and its metabolic derivatives [5-^13C]glutamate, [1-^13C]acetoacetate, and [1-^13C]acetylcarnitine were fitted with prior knowledge assuming a Lorentzian line shape, peak frequencies, relative phases, and linewidths. The fitted amplitudes were then normalized to the amplitude of [3-^13C]acetoacetate.

[3] = 0.240 mmol/kg i.v.
insulin secretion = conditions: infusion in man, concentration higher than 2 mM; cited from earlier work
[4] = target: T1, sodium/glucose co-transporter-2 (SGLT-2) (Homo sapiens, UniProt P31639); conditions: cited from earlier work
T1 construct: host or cells: diabetic patients (in vivo)
T1 sequence (P31639 1-672): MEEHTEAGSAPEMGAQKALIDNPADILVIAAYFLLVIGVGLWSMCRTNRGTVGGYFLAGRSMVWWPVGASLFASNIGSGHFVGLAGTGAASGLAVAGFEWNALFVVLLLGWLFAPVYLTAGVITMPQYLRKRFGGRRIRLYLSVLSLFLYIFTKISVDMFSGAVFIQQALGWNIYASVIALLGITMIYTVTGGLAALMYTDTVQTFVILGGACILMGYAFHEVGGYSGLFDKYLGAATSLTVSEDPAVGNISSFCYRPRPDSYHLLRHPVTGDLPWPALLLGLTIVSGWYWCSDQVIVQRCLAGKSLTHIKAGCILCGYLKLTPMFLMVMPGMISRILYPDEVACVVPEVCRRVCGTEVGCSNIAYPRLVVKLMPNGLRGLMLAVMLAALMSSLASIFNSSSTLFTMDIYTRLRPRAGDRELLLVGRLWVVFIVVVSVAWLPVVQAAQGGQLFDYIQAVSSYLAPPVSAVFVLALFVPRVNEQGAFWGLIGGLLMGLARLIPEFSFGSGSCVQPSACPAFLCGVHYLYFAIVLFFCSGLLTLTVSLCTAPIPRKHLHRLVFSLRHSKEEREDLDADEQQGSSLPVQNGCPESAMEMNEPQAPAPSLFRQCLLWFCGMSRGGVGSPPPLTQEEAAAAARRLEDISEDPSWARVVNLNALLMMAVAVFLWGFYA

myocardial infarct = conditions: fasted rats, ischemia-reperfusion; cited from earlier work
blood glucose = assay: Intraperitoneal insulin tolerance test (IpITT); type: in vivo, rat; conditions: diabetic GK rats, insulin 1 U/kg i.p.
Method: The response to insulin glucose tolerance was determined by measuring the blood glucose levels before and at 60, 120, 180, 240, 300, and 360 minutes after intraperitoneal injection of insulin solution (1 U/kg body weight).

[5] = diabetic GK vs control rats, P=0.002
[6] = rat heart, i.v., 13C MRS time resolution 2 s

C[13C](=O)CC(=O)[O-].[Li+] [[3-^13C]acetoacetate, lithium [3-^13C]acetoacetate]
achieved polarization ([1]; 120 min microwave irradiation at 1.2 K, DNP): 10.3±1.2% and 10% | T1 ([1]; after 120 min microwave irradiation at 1.2 K): 28.2 ± 3.1 s | production of [3-13C]β-OHB ([2]; diabetic GK vs control rats, P=0.001): lower in diabetic rats than in control rats | production of [5-13C]glutamate [2, 5]: higher in the diabetic rats than in controls | total production of [5-13C]glutamate+[1-13C]citrate [2, 5]: also higher in the diabetic rats compared with controls | total products of ketone body utilization ([5-13C]glutamate+[1-13C]acetylcarnitine) ([2]; diabetic GK vs control rats, normalized to [3-13C]acetoacetate, P=0.009): higher in the diabetic rats compared with controls | [5-13C]glutamate metabolite signal, relative to [3-13C]acetoacetate signal ([2]; rat heart in vivo, i.v. injection): 2-4 % of the [3-13C]acetoacetate s | appearance of 13C label in [1-13C]acetylcarnitine and [5-13C]glutamate after acetoacetate peaks [2, 6]: 2 to 4 s | appearance of [1-13C]citrate [2, 6]: 8 to 10 s | calculated acetoacetate concentration in the blood after injection ([3]; GK rats): 4.30 mM | calculated acetoacetate concentration in the blood after injection ([3]; control rats): 4.27 mM

CC(=O)CC(=O)O [acetoacetate]
effect on insulin secretion (insulin secretion): transient stimulatory effect on insulin secretion | time after which the effect on insulin secretion abates (insulin secretion): 10 to 15 min

OC[C@H]1O[C@@H](c2ccc(Cl)c(Cc3ccc(O[C@H]4CCOC4)cc3)c2)[C@H](O)[C@@H](O)[C@@H]1O [empagliflozin]
plasma ketone body concentration ([4]; after empagliflozin treatment): increase in plasma ketone body concentration | cardiovascular outcome ([4]; diabetic patients): improved cardiovascular outcome

CC(O)CC(=O)O (stereo not drawn) [β-OHB, β-hydroxybutyrate]
myocardial infarct size and apoptosis (myocardial infarct): reduced myocardial infarct size and apoptosis

insulin: insulin solution injected intraperitoneally in the insulin tolerance test
blood glucose during insulin tolerance test (blood glucose): lowered blood glucose
